PMC12446476 (Nature Communications, 2025)
≈ marks a conversion by molar mass, not a printed value. Where two headings read alike, the source gives them in different places.

Tested on: N. gonorrhoeae
Assay: MIC determination, Etest
Assay type: cell-based, Neisseria gonorrhoeae
Conditions: Neisseria gonorrhoeae, comparator antibiotics, read-out: Minimum inhibitory concentration
Source text: The 2024 WHO N. gonorrhoeae reference strains were used for quality control. Only whole MIC doubling dilutions are reported. Clinical breakpoints or the epidemiological cutoff (ECOFF, to indicate azithromycin resistance) from EUCAST (v14.0, https://www.eucast.org/clinical_breakpoints) were used to classify isolates as antimicrobial susceptible or resistant. […] Two times the standard inoculum defined by CLSI was used to establish consistent growth in untreated control samples for some strains. In vitro time-kill assays were performed according to CLSI guidelines[65] using Columbia Broth (BD Difco) supplemented with 1% IsoVitaleX Enrichment (BD). Viable bacterial counts were generated by plating 10-fold serially diluted samples on GC agar plates containing 1% IsoVitaleX Enrichment (BD).

What does the source list for `CO/N=C(\C(=O)N[C@@H]1C(=O)N2C(C(=O)O)=C(CSc3nc(=O)c(=O)[nH]n3C)CS[C@H]12)c1csc(N)n1` [Ceftriaxone, reference compound]?
MIC (clinical N. gonorrhoeae isolate 1, Sweden 2023): 4 ng/mL (≈ 7.21 nM); MIC (clinical N. gonorrhoeae isolate 2, Sweden 2023): 32 ng/mL (≈ 57.7 nM); MIC (clinical N. gonorrhoeae isolate 3, Sweden 2023): 4 ng/mL (≈ 7.21 nM); MIC (clinical N. gonorrhoeae isolate 4, Sweden 2023): 32 ng/mL (≈ 57.7 nM); MIC (clinical N. gonorrhoeae isolate 5, Sweden 2023): 4 ng/mL (≈ 7.21 nM); MIC (clinical N. gonorrhoeae isolate 6, Sweden 2023): < 2 ng/mL; MIC (clinical N. gonorrhoeae isolate 7, Sweden 2023): 8 ng/mL (≈ 14.4 nM); MIC (clinical N. gonorrhoeae isolate 8, Sweden 2023): 4 ng/mL (≈ 7.21 nM); MIC (clinical N. gonorrhoeae isolate 9, Sweden 2023): 4 ng/mL (≈ 7.21 nM); MIC (clinical N. gonorrhoeae isolate 10, Sweden 2023): < 2 ng/mL; MIC (clinical N. gonorrhoeae isolate 11, Sweden 2023): 64 ng/mL (≈ 115 nM); MIC (clinical N. gonorrhoeae isolate 12, Sweden 2023): 8 ng/mL (≈ 14.4 nM); MIC (clinical N. gonorrhoeae isolate 13, Sweden 2023): < 2 ng/mL; MIC (clinical N. gonorrhoeae isolate 14, Sweden 2023): 4 ng/mL (≈ 7.21 nM); MIC (clinical N. gonorrhoeae isolate 15, Sweden 2023): 4 ng/mL (≈ 7.21 nM); MIC (clinical N. gonorrhoeae isolate 16, Sweden 2023): 32 ng/mL (≈ 57.7 nM); MIC (clinical N. gonorrhoeae isolate 17, Sweden 2023): 4 ng/mL (≈ 7.21 nM); MIC (clinical N. gonorrhoeae isolate 18, Sweden 2023): 4 ng/mL (≈ 7.21 nM); MIC (clinical N. gonorrhoeae isolate 19, Sweden 2023): 16 ng/mL (≈ 28.9 nM); MIC (clinical N. gonorrhoeae isolate 20, Sweden 2023): 2 ng/mL (≈ 3.61 nM); MIC (clinical N. gonorrhoeae isolate 21, Sweden 2023): 2 ng/mL (≈ 3.61 nM); MIC (clinical N. gonorrhoeae isolate 22, Sweden 2023): 2 ng/mL (≈ 3.61 nM); MIC (clinical N. gonorrhoeae isolate 23, Sweden 2023): < 2 ng/mL; MIC (clinical N. gonorrhoeae isolate 24, Sweden 2023): 2 ng/mL (≈ 3.61 nM); MIC (clinical N. gonorrhoeae isolate 25, Sweden 2023): 4 ng/mL (≈ 7.21 nM); MIC (clinical N. gonorrhoeae isolate 26, Sweden 2023): 4 ng/mL (≈ 7.21 nM); MIC (clinical N. gonorrhoeae isolate 27, Sweden 2023): 4 ng/mL (≈ 7.21 nM); MIC (clinical N. gonorrhoeae isolate 28, Sweden 2023): 8 ng/mL (≈ 14.4 nM); MIC (clinical N. gonorrhoeae isolate 29, Sweden 2023): 4 ng/mL (≈ 7.21 nM); MIC (clinical N. gonorrhoeae isolate 30, Sweden 2023): < 2 ng/mL; MIC (clinical N. gonorrhoeae isolate 31, Sweden 2023): 4 ng/mL (≈ 7.21 nM); MIC (clinical N. gonorrhoeae isolate 32, Sweden 2023): 2 ng/mL (≈ 3.61 nM); MIC (clinical N. gonorrhoeae isolate 33, Sweden 2023): 2 ng/mL (≈ 3.61 nM); MIC (clinical N. gonorrhoeae isolate 34, Sweden 2023): 4 ng/mL (≈ 7.21 nM); MIC (clinical N. gonorrhoeae isolate 35, Sweden 2023): 64 ng/mL (≈ 115 nM); MIC (clinical N. gonorrhoeae isolate 36, Sweden 2023): 8 ng/mL (≈ 14.4 nM); MIC (clinical N. gonorrhoeae isolate 37, Sweden 2023): 16 ng/mL (≈ 28.9 nM); MIC (clinical N. gonorrhoeae isolate 38, Sweden 2023): 4 ng/mL (≈ 7.21 nM); MIC (clinical N. gonorrhoeae isolate 39, Sweden 2023): 4 ng/mL (≈ 7.21 nM); MIC (clinical N. gonorrhoeae isolate 40, Sweden 2023): 8 ng/mL (≈ 14.4 nM); MIC (clinical N. gonorrhoeae isolate 41, Sweden 2023): 32 ng/mL (≈ 57.7 nM); MIC (clinical N. gonorrhoeae isolate 42, Sweden 2023): < 2 ng/mL; MIC (clinical N. gonorrhoeae isolate 43, Sweden 2023): 4 ng/mL (≈ 7.21 nM); MIC (clinical N. gonorrhoeae isolate 44, Sweden 2023): 64 ng/mL (≈ 115 nM); MIC (clinical N. gonorrhoeae isolate 45, Sweden 2023): 2 ng/mL (≈ 3.61 nM); MIC (clinical N. gonorrhoeae isolate 46, Sweden 2023): 16 ng/mL (≈ 28.9 nM); MIC (clinical N. gonorrhoeae isolate 47, Sweden 2023): 8 ng/mL (≈ 14.4 nM); MIC (clinical N. gonorrhoeae isolate 48, Sweden 2023): 4 ng/mL (≈ 7.21 nM); MIC (clinical N. gonorrhoeae isolate 49, Sweden 2023): 4 ng/mL (≈ 7.21 nM); MIC (clinical N. gonorrhoeae isolate 50, Sweden 2023): 4 ng/mL (≈ 7.21 nM); MIC (clinical N. gonorrhoeae isolate 51, Sweden 2023): 2 ng/mL (≈ 3.61 nM); MIC (clinical N. gonorrhoeae isolate 52, Sweden 2023): 2 ng/mL (≈ 3.61 nM); MIC (clinical N. gonorrhoeae isolate 53, Sweden 2023): 2 ng/mL (≈ 3.61 nM); MIC (clinical N. gonorrhoeae isolate 54, Sweden 2023): 4 ng/mL (≈ 7.21 nM); MIC (clinical N. gonorrhoeae isolate 55, Sweden 2023): 4 ng/mL (≈ 7.21 nM); MIC (clinical N. gonorrhoeae isolate 56, Sweden 2023): 32 ng/mL (≈ 57.7 nM); MIC (clinical N. gonorrhoeae isolate 57, Sweden 2023): 16 ng/mL (≈ 28.9 nM); MIC (clinical N. gonorrhoeae isolate 58, Sweden 2023): 2 ng/mL (≈ 3.61 nM); MIC (clinical N. gonorrhoeae isolate 59, Sweden 2023): 16 ng/mL (≈ 28.9 nM); MIC (clinical N. gonorrhoeae isolate 60, Sweden 2023): 2 ng/mL (≈ 3.61 nM); MIC (clinical N. gonorrhoeae isolate 61, Sweden 2023): < 2 ng/mL; MIC (clinical N. gonorrhoeae isolate 62, Sweden 2023): < 2 ng/mL; MIC (clinical N. gonorrhoeae isolate 63, Sweden 2023): < 2 ng/mL; MIC (clinical N. gonorrhoeae isolate 64, Sweden 2023): 16 ng/mL (≈ 28.9 nM); MIC (clinical N. gonorrhoeae isolate 65, Sweden 2023): < 2 ng/mL; MIC (clinical N. gonorrhoeae isolate 66, Sweden 2023): 32 ng/mL (≈ 57.7 nM); MIC (clinical N. gonorrhoeae isolate 67, Sweden 2023): 16 ng/mL (≈ 28.9 nM); MIC (clinical N. gonorrhoeae isolate 68, Sweden 2023): 4 ng/mL (≈ 7.21 nM); MIC (clinical N. gonorrhoeae isolate 69, Sweden 2023): 4 ng/mL (≈ 7.21 nM); MIC (clinical N. gonorrhoeae isolate 70, Sweden 2023): < 2 ng/mL; MIC (clinical N. gonorrhoeae isolate 71, Sweden 2023): 32 ng/mL (≈ 57.7 nM); MIC (clinical N. gonorrhoeae isolate 72, Sweden 2023): 32 ng/mL (≈ 57.7 nM); MIC (clinical N. gonorrhoeae isolate 73, Sweden 2023): 16 ng/mL (≈ 28.9 nM); MIC (clinical N. gonorrhoeae isolate 74, Sweden 2023): 32 ng/mL (≈ 57.7 nM); MIC (clinical N. gonorrhoeae isolate 75, Sweden 2023): 32 ng/mL (≈ 57.7 nM); MIC (clinical N. gonorrhoeae isolate 76, Sweden 2023): 4 ng/mL (≈ 7.21 nM); MIC (clinical N. gonorrhoeae isolate 77, Sweden 2023): 2 ng/mL (≈ 3.61 nM); MIC (clinical N. gonorrhoeae isolate 78, Sweden 2023): 16 ng/mL (≈ 28.9 nM); MIC (clinical N. gonorrhoeae isolate 79, Sweden 2023): < 2 ng/mL; MIC (clinical N. gonorrhoeae isolate 80, Sweden 2023): 8 ng/mL (≈ 14.4 nM); MIC (clinical N. gonorrhoeae isolate 81, Sweden 2023): 4 ng/mL (≈ 7.21 nM); MIC (clinical N. gonorrhoeae isolate 82, Sweden 2023): 16 ng/mL (≈ 28.9 nM); MIC (clinical N. gonorrhoeae isolate 83, Sweden 2023): 4 ng/mL (≈ 7.21 nM); MIC (clinical N. gonorrhoeae isolate 84, Sweden 2023): 64 ng/mL (≈ 115 nM); MIC (clinical N. gonorrhoeae isolate 85, Sweden 2023): 4 ng/mL (≈ 7.21 nM); MIC (clinical N. gonorrhoeae isolate 86, Sweden 2023): 8 ng/mL (≈ 14.4 nM); MIC (clinical N. gonorrhoeae isolate 87, Sweden 2023): 2 ng/mL (≈ 3.61 nM); MIC (clinical N. gonorrhoeae isolate 88, Sweden 2023): 64 ng/mL (≈ 115 nM); MIC (clinical N. gonorrhoeae isolate 89, Sweden 2023): 4 ng/mL (≈ 7.21 nM); MIC (clinical N. gonorrhoeae isolate 90, Sweden 2023): 2 ng/mL (≈ 3.61 nM); MIC (clinical N. gonorrhoeae isolate 91, Sweden 2023): 4 ng/mL (≈ 7.21 nM); MIC (clinical N. gonorrhoeae isolate 92, Sweden 2023): 4 ng/mL (≈ 7.21 nM); MIC (clinical N. gonorrhoeae isolate 93, Sweden 2023): 4 ng/mL (≈ 7.21 nM); MIC (clinical N. gonorrhoeae isolate 94, Sweden 2023): 2 ng/mL (≈ 3.61 nM); MIC (clinical N. gonorrhoeae isolate 95, Sweden 2023): < 2 ng/mL; MIC (clinical N. gonorrhoeae isolate 96, Sweden 2023): 2 ng/mL (≈ 3.61 nM); MIC (clinical N. gonorrhoeae isolate 97, Sweden 2023): < 2 ng/mL; MIC (clinical N. gonorrhoeae isolate 98, Sweden 2023): 2 ng/mL (≈ 3.61 nM); MIC (clinical N. gonorrhoeae isolate 99, Sweden 2023): 4 ng/mL (≈ 7.21 nM); MIC (clinical N. gonorrhoeae isolate 100, Sweden 2023): 4 ng/mL (≈ 7.21 nM)
